Measurements from patent US6858638B2, “Substituted indazoles, compositions containing them, method of production and use” (Aventis Pharma S.A., priority 2002, dated 2005).

What was measured:
Type in all cases: biochemical
human FAK = target: T1, human FAK (Homo sapiens, UniProt Q05397); experiment: FAK autophosphorylation inhibition, time resolved fluorescence (HTRF) assay; conditions: 10 μM (values without asterisk); read-out: FAK % inhib at 10 μM
T1 construct: The complete cDNA of human FAK; made in house; host or cells: baculovirus expression system (vector pFastBac HTc)
Protocol: The inhibitory activity of the compounds on FAK is determined by measuring the inhibition of the autophosphorylation of the enzyme using a time resolved fluorescence (HTRF) assay.
The complete cDNA of human FAK, the N-terminal end of which was labeled with histidine, was cloned into a baculovirus expression vector pFastBac HTc. The protein was expressed and purified to approximately 70% homogeneity.
The kinase activity is determined by incubating the enzyme (6.6 μg/ml) with various concentrations of test compound in a 50 mM Hepes buffer, pH=7.2, containing 10 mM MgCl2, 100 μM Na3VO4 and 15 μM d'ATP for 1 hour at 37° C. The enzyme reaction is stopped by adding Hepes buffer, pH=7.0, containing […], 133 mM EDTA and 0.1% BSA, and the labeling is carried out, over 1 to 2 hours at ambient temperature, by adding to this buffer an anti-Histidine antibody labeled with XL665 and a monoclonal antibody phosphospecific for tyrosine, conjugated to europium cryptate (Eu-K). The characteristics of the two fluorophores are available in G. Mathis et al., Anticancer Research, 1997, 17, pages 3011-3014. The transfer of energy from the excited europium cryptate to the XL665 acceptor is proportional to the degree of autophosphorylation of FAK. The long-lived signal specific for XL-665 is measured in a Packard Discovery plate counter. All the assays are carried out in duplicate and the mean of the two assays is calculated. The inhibition of the FAK autophosphorylation activity with compounds of the invention is expressed as percentage inhibition compared to a control whose activity is measured in the absence of test compound. The [signal at 665 nm/signal at 620 nm] ratio is used for the calculation of the % inhibition.

human KDR enzyme = target: T2, human KDR enzyme (Homo sapiens, UniProt P35968); experiment: KDR substrate (PLCγ) phosphorylation, scintillation assay; conditions: 10 μM; read-out: KDR % inhib at 10 μM
T2 construct: The cytoplasmic domain of the human KDR enzyme; GST; made in house; host or cells: SF21 insect cells (baculovirus)
Protocol: The inhibitory effect of the compounds is determined in an assay of substrate phosphorylation by the KDR enzyme in vitro using a scintillation technique (96-well plate, NEN).
The cytoplasmic domain of the human KDR enzyme was cloned in the form of a GST fusion into the baculovirus expression vector pFastBac. The protein was expressed in SF21 cells and purified to approximately 60% homogeneity.
The KDR kinase activity is measured in 20 mM MOPS, 10 mM MgCl2, 10 mM MnCl2, 1 mM DTT, 2.5 mM EGTA, 10 mM β-glycerophosphate, pH=7.2, in the presence of 10 mM MgCl2, 100 μM Na3VO4, 1 mM NaF. 10 μl of the compound are added to 70 μl of kinase buffer containing 100 ng of KDR enzyme at 4° C. The reaction is triggered by adding 20 μl of solution containing 2 μg of substrate (SH2-SH3 fragment of PLCγ expressed in the form of a GST fusion protein), 2 μCi γ^33P[ATP] and 2 μM cold ATP. After incubation for 1 hour at 37° C., the reaction is stopped by adding 1 volume (100 μl) of 200 mM EDTA. The incubation buffer is removed and the wells are washed three times with 300 μl of PBS. The radioactivity is measured in each well using Top Count NXT radioactivity counter (Packard).
The background noise is determined by measuring the radioactivity in four different wells containing the radioactive ATP and the substrate alone.
A control for total activity is measured in four different wells containing all the reagents (γ^33P-[ATP], KDR and PLCγ substrate) but in the absence of compound.
The inhibition of the KDR activity with the compound of the invention is expressed as percentage inhibition of the control activity determined in the absence of compound.
The compound SU5614 (Calbiochem) (1 μM) is included in each plate as an inhibition control.

Aurora2 kinase = target: T3, Aurora2 kinase (Homo sapiens, UniProt O14965); experiment: Aurora2 kinase radioactivity scintillation assay using nickel chelate (NuMA substrate); conditions: 10 μM; read-out: Aurora2 % inhib at 10 μM
T3 construct: A complete recombinant Aurora2 enzyme; His tag (N); made in house; host or cells: E. coli
T3 sequence (O14965 1-403): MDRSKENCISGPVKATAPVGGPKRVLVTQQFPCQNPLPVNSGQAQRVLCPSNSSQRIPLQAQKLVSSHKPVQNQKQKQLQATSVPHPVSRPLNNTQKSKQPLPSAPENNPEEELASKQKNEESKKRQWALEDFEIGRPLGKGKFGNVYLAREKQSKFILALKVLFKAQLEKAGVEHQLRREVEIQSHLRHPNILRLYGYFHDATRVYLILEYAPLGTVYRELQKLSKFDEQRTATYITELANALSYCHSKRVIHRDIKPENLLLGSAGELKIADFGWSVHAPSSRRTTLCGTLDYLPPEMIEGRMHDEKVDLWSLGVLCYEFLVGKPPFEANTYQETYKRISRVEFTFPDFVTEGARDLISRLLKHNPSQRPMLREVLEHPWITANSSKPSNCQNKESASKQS
Protocol: The inhibitory effect of compounds with respect to the Aurora2 kinase is determined with a radioactivity scintillation assay using nickel chelate.
A complete recombinant Aurora2 enzyme, the N-terminal end of which was labeled with histidine, was expressed in E. coli and purified to a quality close to homogeneity.
The C-terminal fragment (Q1687-H2101) of a NuMA (Nuclear protein that associates with the Mitotic Apparatus) expressed in E. coli, and the N-terminal end of which was labeled with histidine, was purified by nickel chelate chromatography and used as substrate in the Aurora2 kinase assay. In order to determine the kinase activity, the NuMA substrate is equilibrated by chromatography on a Pharmacia PD10 column, in a buffer (50 mM Tris HCl, pH7.5, 50 mM NaCl, 10 mM MgCl2) to which 10% (v/v) of glycerol and 0.05% (w/v) of NP40 have been added.
The kinase acivitity of Aurora2 is measured by scintillation with nickel chelate (New England Nuclear, model SMP107). Each well contains 100 μl of the following solution: 0.02 μM of Aurora2; 0.5 μM of NuMA substrate; 1 μM of ATP to which 0.5 μCi of ATP-[^33P] has been added. The solutions are incubated for 30 minutes at 37° C. The assay buffer is then removed and the wells are rinsed twice with 300 μl of kinase buffer. The radioactivity is measured in each well using a Packard Model Top Count NXT device.
The background noise is deduced from the measurement of radioactivity by measuring, in duplicate, in wells containing the radioactive ATP alone containing buffered kinase treated in the same way as the other samples.
The activity of the control is determined by measuring, in duplicate, the radioactivity in the complete assay mixture (ATP, Aurora2 and the NuMA substrate) in the absence of test compound.
The inhibition of the Aurora2 with a compound of the invention is expressed as percentage inhibition of the control activity in the absence of test compound. Staurosporine is added to each plate as an inhibition control.

[1] = target: T4, human IGF1R cytoplasmic domain (Homo sapiens, UniProt P08069); experiment: IGF1R autophosphorylation inhibition, time resolved fluorescence (HTRF) assay; conditions: 10 μM; read-out: IGF1R % inhib at 10 μM
T4 construct: The human IGF1R cytoplasmic domain was cloned; made in house; host or cells: SF21 insect cells (baculovirus)
Protocol: The inhibitory activity of the compounds on IGF1R is determined by measuring the inhibition of the autophosphorylation of the enzyme using a time resolved fluorescence (HTRF) assay.
The human IGF1R cytoplasmic domain was cloned, as a fusion with glutathione S-transferase (GST), into the baculovirus expression vector pFastBac-GST. The protein was expressed in SF21 cells and purified to approximately 80% homogeneity.
The kinase activity was determined by incubating the enzyme with various concentrations of test compound in a 50 mM Hepes buffer, pH 7.5, containing 5 mM MnCl2, 50 mM NaCl, 3% glycerol, 0.025% Tween […] of ATP. The enzyme reaction is stopped by adding 100 mM Hepes buffer, pH 7.0, containing 0.4 M KF, 133 mM EDTA and 0.1% BSA containing an anti-GST antibody labeled with XL665 and an antiphosphotyrosine antibody conjugated to europium cryptate (Eu-K). The characteristics of the two fluorophores, XL-665 and Eu-K, are available in G. Mathis et al., Anticancer Research, 1997, 17, pages 3011-3014. The transfer of energy from the excited europium cryptate to the acceptor XL665 is proportional to the degree of autophosphorylation of IGF1R. The long-lived signal specific for XL-665 is measured in a Victor analyzer plate counter (Perkin-elmer). The inhibition of the IGF1R autophosphorylation activity with compounds of the invention is expressed as percentage inhibition compared to a control whose activity is measured in the absence of test compound.

T4 sequence (P08069 960-1367 limits assumed): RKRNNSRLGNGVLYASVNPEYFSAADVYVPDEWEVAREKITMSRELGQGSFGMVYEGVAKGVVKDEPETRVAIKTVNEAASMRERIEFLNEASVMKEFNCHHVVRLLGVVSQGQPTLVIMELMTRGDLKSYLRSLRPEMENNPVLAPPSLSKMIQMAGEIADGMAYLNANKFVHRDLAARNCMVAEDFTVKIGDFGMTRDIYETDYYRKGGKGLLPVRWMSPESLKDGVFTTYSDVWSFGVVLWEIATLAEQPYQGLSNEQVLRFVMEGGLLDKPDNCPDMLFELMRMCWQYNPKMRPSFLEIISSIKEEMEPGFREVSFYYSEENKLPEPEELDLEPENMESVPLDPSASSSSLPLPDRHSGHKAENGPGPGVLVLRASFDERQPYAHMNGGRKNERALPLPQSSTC
T1 sequence (Q05397 whole entry): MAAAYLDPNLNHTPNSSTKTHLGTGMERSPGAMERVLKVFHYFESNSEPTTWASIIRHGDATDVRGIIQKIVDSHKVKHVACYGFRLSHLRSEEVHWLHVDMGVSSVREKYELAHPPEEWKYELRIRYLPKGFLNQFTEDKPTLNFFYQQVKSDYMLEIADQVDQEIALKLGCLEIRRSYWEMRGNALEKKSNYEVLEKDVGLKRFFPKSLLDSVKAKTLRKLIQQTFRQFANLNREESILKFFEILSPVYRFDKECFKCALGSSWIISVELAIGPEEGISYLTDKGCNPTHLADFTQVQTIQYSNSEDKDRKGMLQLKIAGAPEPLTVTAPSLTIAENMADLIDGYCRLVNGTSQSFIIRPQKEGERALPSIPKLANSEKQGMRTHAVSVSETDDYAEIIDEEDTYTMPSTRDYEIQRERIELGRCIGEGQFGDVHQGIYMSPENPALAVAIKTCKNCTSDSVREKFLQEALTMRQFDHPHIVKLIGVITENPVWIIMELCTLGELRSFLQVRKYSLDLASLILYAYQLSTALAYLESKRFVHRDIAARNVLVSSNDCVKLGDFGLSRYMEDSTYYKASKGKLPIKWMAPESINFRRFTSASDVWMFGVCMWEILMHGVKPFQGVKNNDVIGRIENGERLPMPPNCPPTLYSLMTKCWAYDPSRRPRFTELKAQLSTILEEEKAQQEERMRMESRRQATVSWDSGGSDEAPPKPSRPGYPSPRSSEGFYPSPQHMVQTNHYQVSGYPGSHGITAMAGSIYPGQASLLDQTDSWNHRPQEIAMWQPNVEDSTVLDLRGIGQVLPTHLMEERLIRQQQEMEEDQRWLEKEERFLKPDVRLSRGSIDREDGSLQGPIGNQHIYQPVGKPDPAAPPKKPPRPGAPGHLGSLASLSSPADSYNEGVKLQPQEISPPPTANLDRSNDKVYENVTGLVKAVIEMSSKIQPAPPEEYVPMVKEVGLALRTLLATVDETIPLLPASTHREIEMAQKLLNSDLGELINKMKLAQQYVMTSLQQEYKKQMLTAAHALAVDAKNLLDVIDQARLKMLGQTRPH
T2 sequence (P35968 786-1356 limits assumed): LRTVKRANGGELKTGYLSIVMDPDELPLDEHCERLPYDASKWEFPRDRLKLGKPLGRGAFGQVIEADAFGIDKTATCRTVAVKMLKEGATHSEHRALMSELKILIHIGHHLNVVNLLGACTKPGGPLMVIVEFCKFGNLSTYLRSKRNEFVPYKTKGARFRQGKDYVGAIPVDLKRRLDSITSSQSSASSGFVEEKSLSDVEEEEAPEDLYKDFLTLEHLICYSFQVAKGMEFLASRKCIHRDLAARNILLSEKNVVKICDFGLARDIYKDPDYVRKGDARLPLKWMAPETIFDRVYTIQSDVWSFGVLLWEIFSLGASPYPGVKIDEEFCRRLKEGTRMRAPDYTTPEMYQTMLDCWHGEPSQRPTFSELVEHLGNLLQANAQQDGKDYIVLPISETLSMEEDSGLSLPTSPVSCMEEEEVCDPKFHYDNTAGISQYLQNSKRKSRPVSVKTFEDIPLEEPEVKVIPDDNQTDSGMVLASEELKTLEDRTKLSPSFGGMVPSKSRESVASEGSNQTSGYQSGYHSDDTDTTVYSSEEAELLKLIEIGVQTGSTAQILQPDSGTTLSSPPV

inhibition at 10 µM (human FAK) [%]	inhibition at 10 µM (human KDR enzyme) [%]	inhibition at 10 µM (Aurora2 kinase) [%]	inhibition at 10 µM [1] [%]	SMILES
96	61	93	73	CS(=O)(=O)c1ccccc1S(=O)(=O)Nc1ccc2[nH]nc(-c3cccc(Br)c3)c2c1 [Example 184, N-[3-(3-Bromophenyl)-1H-indazol-5-yl]-2-methanesulfonyl-benzenesulfonamide]
15	37	68	20	CS(=O)(=O)c1ccccc1S(=O)(=O)Nc1ccc2[nH]nc(-c3ccc(I)cc3)c2c1 [Example 218, N-[3-(4-Iodophenyl)-1H-indazol-5-yl]-2-methanesulfonyl-benzenesulfonamide]
87	96	100	89	O=S(=O)(Nc1ccc2[nH]nc(-c3ccc(O)cc3)c2c1)c1ccccc1 [Example 34, N-[3-(4-Hydroxyphenyl)-1H-indazol-5-yl]benzenesulfonamide]
96	58	92	71	Cc1cccc(-c2n[nH]c3ccc(NS(=O)(=O)c4ccccc4S(C)(=O)=O)cc23)c1 [Example 165, 2-Methanesulfonyl-N-(3-m-tolyl-1H-indazol-5-yl)-benzenesulfonamide]
90	71	91	66	Cc1ccc(-c2n[nH]c3ccc(NS(=O)(=O)c4ccccc4S(C)(=O)=O)cc23)cc1 [Example 164, 2-Methanesulfonyl-N-(3-p-tolyl-1H-indazol-5-yl)-benzenesulfonamide]
92	58	94	77	C=Cc1ccc(-c2n[nH]c3ccc(NS(=O)(=O)c4ccccc4S(C)(=O)=O)cc23)cc1 [Example 185, 2-Methanesulfonyl-N-[3-(4-vinylphenyl)-1H-indazol-5-yl]-benzenesulfonamide]
40	18	17	50	CS(=O)(=O)c1ccccc1S(=O)(=O)Nc1ccc2[nH]nc(-c3ccccc3N)c2c1 [Example 49, N-[3-(2-Aminophenyl)-1H-indazol-5-yl]-2-methylsulfonylbenzenesulfonamide]
97	79	96	83	CS(=O)(=O)c1ccccc1S(=O)(=O)Nc1ccc2[nH]nc(-c3ccc(O)cc3)c2c1 [Example 202, N-[3-(4-Hydroxyphenyl)-1H-indazol-5-yl]-2-methanesulfonyl-benzenesulfonamide]
91	45	94	56	CC(=O)c1ccc(-c2n[nH]c3ccc(NS(=O)(=O)c4ccccc4S(C)(=O)=O)cc23)cc1 [Example 207, N-[3-(4-Acetylphenyl)-1H-indazol-5-yl]-2-methanesulfonyl-benzenesulfonamide]
91	71	92	70	Cc1ccc(-c2n[nH]c3ccc(NS(=O)(=O)c4ccccc4S(C)(=O)=O)cc23)cc1F [Example 224, N-[3-(3-Fluoro-4-methyl-phenyl)-1H-indazol-5-yl]-2-methanesulfonyl-benzenesulfonamide]
92	71	94	84	CSc1ccc(-c2n[nH]c3ccc(NS(=O)(=O)c4ccccc4S(C)(=O)=O)cc23)cc1 [Example 172, 2-Methanesulfonyl-N-[3-(4-methylsulfanylphenyl)-1H-indazol-5-yl]-benzenesulfonamide]
95	37		82	CC(=O)Nc1n[nH]c2ccc(NS(=O)(=O)c3cc(F)cc(F)c3)cc12 [Example 44, N-[5-(3,5-Difluorobenzenesulfonylamino)-1H-indazol-3-yl]acetamide]
